Data: patent US20230226065A1, “ANTI-INFLAMMATORY COMPOSITIONS, METHODS AND USES THEREOF” (COMVITA LIMITED, priority 2020, published 2023)

Columns and labels:
[1] = tested on: MMP-9 secretion in differentiated THP-1 cells; assay: LPS induced MMP-9 secretion in differentiated THP-1 cells (ELISA); format: cell-based, human; settings: 6 μM Azithromycin positive control; LPS 1 μg/mL; P=0.00
Procedure: THP-1 cells (ATCC, ATCTIB202) were grown in RPMI-1640 (Gibco, 11875093)+0.05 mM 2-mercaptoethanol+10% fetal calf serum (FCS)+1% pen-strep. For experiments, the cells were cultured in RPMI-1640 medium with 10% fetal bovine serum (FBS) only.
THP-1 monocyte cells were seeded at a density of 2.5×10^5 cells/ml in 96-well plates and differentiated into macrophages using 10 ng/ml of phorbol 12-myristate 13-acetate (PMA) (Bergin et al) (Sigma, P1585-1MG, Lot #SLBX889, 100% purity) for 72 hours. PMA media was then removed from the differentiated THP-1 cells, the cells were then washed once in RPMI-1640 media and then left to rest for 5 hours.
The differentiated THP-1 cells were stimulated with LPS from E. coli 055:B5 (Sigma, L6529; Lot #037K4068). LPS tested at a concentration of 1 μg/ml (Kong et al). […] After 24 hours, the cell culture media was collected and measured for MMP-9 concentration using MMP-9 ELISA (R&D systems, RDSDY91105 lot #P239459 and DY008 Lot #P239900). […]
In order to better capture the variability, each treatment was done at least in triplicate in each plate (2 plates). Media from the triplicate wells were pooled and analysed in duplicates for the MMP-9 ELISA. […]

[2] = tested on: COX-2 protein expression in THP-1 cells; assay: LPS-induced COX-2 protein expression in THP-1 cells (Western blot); format: cell-based, human
Procedure: THP-1 cells were seeded in 12-well tissue-culture treated plates at a density of 500,000 cells/well in growth media overnight. […] Cells were washed with cold PBS and lysed in RIPA buffer containing protease inhibitors (Sigma P2714) for 15 minutes on ice. Debris was pelleted by centrifugation at 14,000×g for 15 min and lysate supernatants were frozen at −80° C. for later analysis by western blot.
Western blots for semi-quantitative COX-2 (Abcam ab188183) protein expression were conducted on THP-1 monocyte cells lysed with RIPA buffer containing protease inhibitors. A total of 10 μg protein was loaded onto precast 10% acrylamide gels (BioRad, NZ) then separated by electrophoresis at 120 V at room temperature. […] The membranes were then incubated with the primary antibody that correspond to the protein of interest for 1 h. […] Western blot images were captured with an Amersham™ Imager 600 (GE Healthcare, Chicago, Ill., USA) and densitometry measurement of protein bands was analysed with the accompanying image analysis software.
For analysis of Western blots, densitometry measurements from the proteins of interest were normalised to the densitometry of p-actin for each sample. […] The significance level was set at p≤0.05.

THP-1 cells = assay: WST-1 cell viability assay, LPS-stimulated THP-1 cells; format: cell-based; settings: 10 μg/mL dexamethasone; LPS co-stimulation 18 hours
Procedure: Human monocytic THP-1 cells were seeded in 96-well tissue-culture treated plates at a density of 50,000 cells/well in growth media (RPMI media supplemented with 10% fetal bovine serum, 2 mM L-glutamine and penicillin-streptomycin) overnight. […] Control wells were treated with hydrogen peroxide (0, 0.5, 1, and 2 mM) for 1 hour prior to addition of WST-1 reagent (Roche, NZ). WST-1 reagent was added to all wells at the end of the 18 hour incubation period, and absorbance readings were subsequently measured 30 min and 1 h and 10 mins after WST-1 addition. Cell viability expressed the percent change from the LPS-stimulated PBS control.

recombinant MMP-9 enzyme [3] = target: T1, recombinant MMP-9 enzyme (Homo sapiens, UniProt P14780); assay: MMP-9 inhibitor screening assay (fluorometric); format: biochemical; settings: NNGH inhibitor control
T1 construct: purchased Abcam ab139449
Procedure: The MMP-9 inhibitor screening assay (fluorometric) kits were purchased from Abcam (Melbourne, Australia). The fluorometric kit contains the recombinant MMP-9 enzyme, MMP inhibitor NNGH (N-isobutyl-N-[4-methoxyphenylsulfonyl]glycyl hydroxamic acid), MMP fluorogenic substrate solubilised in DMSO, the fluorometric assay buffer and 96-well clear microplate.
Inhibitory activity on MMP-9 was assessed using the commercial MMP-9 inhibitor screening assay kit. MMP-9 activity was expressed as a change in fluorescence intensity measured using SpectraMax iD3 multi-mode microplate reader (Molecular Devices, San Jose, USA).
The assay employs a FRET-tagged (fluorescence resonance energy transfer) substrate, which can be hydrolysed by MMP-9 at a specific site (Abcam, 2018). The cleavage of the FRET substrate releases the quenched fluorescent Mca (7-methoxycoumarin-4-yl)-acetyl group (Abcam, 2018). The kit employs a quenched fluorogenic substrate Mca-Pro-Leu-Gly-Leu-Dpa-Ala-Arg-NH2, where the Mca fluorescence is quenched by Dpa until cleavage by MMPs. The amount of fluorescent product yielded by MMP-9 can be detected fluorometrically and it is proportional to the enzyme activity. Fluorescence were measured at ex320 nm-em395 nm to minimise fluorescence interference from 3,6,7-trimethyllumazine at ex330 nm-em470 nm. […]

active MMP-9 = assay: Gelatin gel zymography, active MMP-9 band; format: biochemical; settings: NNGH 2.6 μM in developing buffer; active MMP-9
Procedure: Novex™ 10% Zymogram Plus (Gelatin) Protein Gels (15 wells) were purchased from Thermo Fisher Scientific Inc. (Auckland, New Zealand). All chemicals required for the zymogram analysis were also purchased from Thermo Fisher, these include Novex™ Sharp Pre-stained Protein Standard, Novex Tris-Glycine SDS sample buffer, Novex Tris-Glycine SDS running buffer, Novex Zymogram renaturing buffer and Novex Zymogram developing buffer. […] Gelatin gel zymography was performed as an independent technique to confirm the inhibition of MMP-9 from 3,6,7-trimethyllumazine. This technique uses a non-reducing SDS-PAGE (sodium dodecyl sulfate polyacrylamide gel electrophoresis) gel embedded with gelatin. Proteins are migrated and separated during electrophoresis. The SDS is removed after electrophoresis and the gel is then incubated with essential cofactors required for enzymatic activity. The embedded gelatin can be digested by MMP-9, resulting in clear bands on a dark blue background after staining with Coomassie blue dyes. The gelatinase activity is represented by band densitometry, which can be assessed with image analysis software. […]
After incubation, the gelatin gel was rinsed with water for three times (5 min each) under gentle agitation. […] MMP-9 activities were analysed using densitometry on ImageJ Version 1.52a. […]

recombinant MMP-9 enzyme [4] = target: T1, recombinant MMP-9 enzyme; assay: MMP-9 inhibitor screening assay (colorimetric); format: biochemical; settings: NNGH at 1.3 μM
Excerpt: The MMP-9 inhibitor screening assay (colorimetric) kits were purchased from Abcam (Melbourne, Australia). The kit contains the recombinant MMP-9 enzyme, MMP inhibitor NNGH, MMP chromogenic substrate, the colorimetric assay buffer and 96-well clear microplate.
The colorimetric kit uses a thiopeptide as a chromogenic substrate (Ac-PLG-[2-mercapto-4-methyl-pentanoyl]-LG-OC2H5), which can be hydrolysed by MMPs to produce a sulfhydryl group. This intermediate product further reacts with DTNB [5,5′-dithiobis(2-nitrobenzoic acid), Ellman's reagent] to form 2-nitro-5-thiobenzoic acid, which can be detected by absorbance at 412 nm. The change in absorbance was measured using the SpectraMax iD3 multi-mode microplate reader (Molecular Devices, San Jose, USA). The assays are performed on a convenient 96-wells microplate with a final reaction volume of 100 μL. Prior to the assay, all testing samples and inhibitor controls were incubated with MMP-9 for 60 min at 37° C. […] The absorbance was measured at 1 min intervals during the first 20 min, then 10 min intervals till the end of assay.
Recombinant MMP-9 and the chromogenic substrate were used as the positive control to represent 100% enzyme activity. […] A range of 3,6,7-trimethyllumazine concentrations were diluted with the colorimetric assay buffer to measure the absorbance of the reaction product.

T1 sequence (P14780 94-707): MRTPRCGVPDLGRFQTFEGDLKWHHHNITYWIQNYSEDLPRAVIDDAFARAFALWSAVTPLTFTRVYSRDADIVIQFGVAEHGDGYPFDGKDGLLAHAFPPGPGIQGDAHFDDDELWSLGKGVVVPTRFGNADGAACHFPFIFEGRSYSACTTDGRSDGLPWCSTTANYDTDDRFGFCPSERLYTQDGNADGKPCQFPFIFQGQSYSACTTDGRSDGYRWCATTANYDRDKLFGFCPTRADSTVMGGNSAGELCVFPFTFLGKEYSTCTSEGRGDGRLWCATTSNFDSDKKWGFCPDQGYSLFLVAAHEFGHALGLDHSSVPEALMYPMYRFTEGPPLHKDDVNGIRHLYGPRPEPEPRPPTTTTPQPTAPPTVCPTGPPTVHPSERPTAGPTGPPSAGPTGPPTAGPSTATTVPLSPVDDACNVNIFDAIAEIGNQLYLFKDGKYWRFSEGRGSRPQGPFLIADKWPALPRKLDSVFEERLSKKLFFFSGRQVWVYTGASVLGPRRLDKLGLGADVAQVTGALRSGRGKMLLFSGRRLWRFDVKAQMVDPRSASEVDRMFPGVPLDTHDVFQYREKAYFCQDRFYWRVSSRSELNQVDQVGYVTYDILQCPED

CC[C@H]1OC(=O)[C@H](C)[C@@H](O[C@H]2C[C@@](C)(OC)[C@@H](O)[C@H](C)O2)[C@H](C)[C@@H](O[C@@H]2O[C@H](C)C[C@H](N(C)C)[C@H]2O)[C@](C)(O)C[C@@H](C)CN(C)[C@H](C)[C@@H](O)[C@]1(C)O [Azithromycin]
effect on MMP-9 secretion [1]: inhibits MMP-9 secretion

C[C@@H]1C[C@H]2[C@@H]3CCC4=CC(=O)C=C[C@]4(C)[C@@]3(F)[C@@H](O)C[C@]2(C)[C@@]1(O)C(=O)CO [Dexamethasone, reference compound]
COX-2 Relative expression (mean ± SEM) ([2]; 10 μg/mL, LPS 24 hours, LPS positive control 1.26 ± 0.11, n=6): 0.85 ± 0.07
cell death (WST-1 cell viability) (THP-1 cells): did not induce cell death

COc1ccc2c(c1)c(CC(=O)O)c(C)n2C(=O)c1ccc(Cl)cc1 [Indomethacin, reference compound]
reduction of LPS-induced COX-2 expression ([2]; indomethacin 10 μmol/L): did not significantly reduce

COc1ccc(S(=O)(=O)N(CC(=O)NO)CC(C)C)cc1 [NNGH, N-isobutyl-N-[4-methoxyphenylsulfonyl]glycyl hydroxamic acid, reference compound]
change in fluorescence (MMP-9 activity) (recombinant MMP-9 enzyme [3]): almost no change in fluorescence
inhibition of gelatinase activity (active MMP-9): completely inhibited
inhibition of MMP-9 activity (recombinant MMP-9 enzyme [4]): inhibited most of the MMP-9 activity
